Measurements published in US20080269250A1, “Pyrrolidine and Piperidine Acetylene Derivatives for Use as Mglur5 Antagonists” (priority 2005, published 2008).
pIC50: −log10 of the molar value.

Assays:
mice = test: stress-induced hyperthermia in mice; assay type: in vivo; conditions: control 0.93±0.1° C.
Protocol: A. Lecci et al., Psychopharmacol 101, 255-261]. At doses of about 0.1 to about 30 mg/kg p.o., selected agents of the invention reverse the stress-induced hyperthermia.

hmGluR5 = target: T1, hmGluR5 (Homo sapiens, UniProt P41594); test: inhibition of quinqualate-induced inositol phosphate turnover in hmGluR5 expressing cells; assay type: cell-based; conditions: read-out: IC50 concentration, inhibition of quinqualate-induced inositol phosphate turnover
T1 construct: expressed in transfected cells
T1 sequence (P41594 21-1180 isoform P41594-2 limits assumed): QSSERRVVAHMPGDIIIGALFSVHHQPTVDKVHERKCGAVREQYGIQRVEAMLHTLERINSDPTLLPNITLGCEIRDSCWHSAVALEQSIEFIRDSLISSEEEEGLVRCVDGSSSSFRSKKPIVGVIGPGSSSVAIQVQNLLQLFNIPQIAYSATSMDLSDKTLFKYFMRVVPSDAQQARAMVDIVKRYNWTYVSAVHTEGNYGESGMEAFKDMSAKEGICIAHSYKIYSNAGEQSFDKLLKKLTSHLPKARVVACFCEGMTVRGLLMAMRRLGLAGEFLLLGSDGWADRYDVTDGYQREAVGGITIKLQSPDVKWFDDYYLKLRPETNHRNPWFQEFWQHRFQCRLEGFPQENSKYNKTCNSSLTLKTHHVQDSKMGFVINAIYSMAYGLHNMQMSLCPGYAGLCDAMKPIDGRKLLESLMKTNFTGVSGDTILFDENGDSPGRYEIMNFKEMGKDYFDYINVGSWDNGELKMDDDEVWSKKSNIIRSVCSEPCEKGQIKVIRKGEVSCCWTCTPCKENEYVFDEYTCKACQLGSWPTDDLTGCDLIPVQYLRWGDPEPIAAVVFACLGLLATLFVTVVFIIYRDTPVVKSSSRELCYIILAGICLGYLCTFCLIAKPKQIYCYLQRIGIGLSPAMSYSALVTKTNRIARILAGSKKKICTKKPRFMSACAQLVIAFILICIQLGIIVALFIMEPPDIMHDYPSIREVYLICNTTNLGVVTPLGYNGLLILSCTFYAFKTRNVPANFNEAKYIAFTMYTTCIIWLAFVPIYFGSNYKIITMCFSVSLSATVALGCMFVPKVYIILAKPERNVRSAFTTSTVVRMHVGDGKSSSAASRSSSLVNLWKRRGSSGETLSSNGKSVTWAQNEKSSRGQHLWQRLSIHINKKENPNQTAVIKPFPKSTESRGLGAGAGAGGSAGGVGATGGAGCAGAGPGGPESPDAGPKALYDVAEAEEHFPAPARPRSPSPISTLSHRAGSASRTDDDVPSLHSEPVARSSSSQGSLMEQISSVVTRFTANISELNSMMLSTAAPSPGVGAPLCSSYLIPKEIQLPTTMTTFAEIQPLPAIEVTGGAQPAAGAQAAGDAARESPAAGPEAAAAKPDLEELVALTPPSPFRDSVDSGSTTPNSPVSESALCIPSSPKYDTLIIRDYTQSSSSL
Text: This can be determined in vitro for example at recombinant human metabotropic glutamate receptors, especially PLC-coupled subtypes thereof such as mGluRs, using different procedures like, for example, measurement of the inhibition of the agonist induced elevation of intracellular Ca^2+ concentration in accordance with L. P. Daggett et al., Neuropharm. Vol. 34, pages 871-886 (1995), P. J. Flor et al., J. Neurochem. Vol. 67, pages 58-63 (1996) or by determination to what extent the agonist induced elevation of the inositol phosphate turnover is inhibited as described by T. Knoepfel et al., Eur. J. Pharmacol. Vol. 288, pages 389-392 (1994), L. P. Daggett et al., Neuropharm. Vol. […] and references cited therein. Isolation and expression of human mGluR subtypes are described in U.S. Pat. No. 5,521,297. Selected agents of the invention show IC50 values for the inhibition of the agonist (e.g. glutamate or quisqualate) induced elevation of intracellular Ca2+ concentration or the agonist (e.g. glutamate or quisqualate) induced inositol phosphate turnover, measured in recombinant cells expressing hmGluR5a of about 1 nM to about 50 μM.

Row | Structure (SMILES) | melting point [°C] | further results
1 | O=C(c1ccoc1)N1CCC(O)(C#Cc2cccc(Cl)c2)CC1 [Example 1, [4-(3-Chloro-phenylethynyl)-4-hydroxy-piperidin-1-yl]-furan-3-yl-methanone] | 93 to 94 | –
2 | CN1CCC(C(=O)N2CCC(O)(C#Cc3cccc(Cl)c3)CC2)CC1 [Example 1.2, [4-(3-Chloro-phenylethynyl)-4-hydroxy-piperidin-1-yl]-(1-methyl-piperidin-4-yl)-methanone] | 134 to 136 | –
3 | O=C(c1ccno1)N1CCC(O)(C#Cc2cccc(Cl)c2)CC1 [Example 1.3, [4-(3-Chloro-phenylethynyl)-4-hydroxy-piperidin-1-yl]-isoxazol-5-yl-methanone] | 132 to 135 | –
4 | O=C(c1ncc[nH]1)N1CCC(O)(C#Cc2cccc(Cl)c2)CC1 [Example 1.4, [4-(3-Chloro-phenylethynyl)-4-hydroxy-piperidin-1-yl]-(1H-imidazol-2-yl)-methanone] | 75 to 80 | –
5 | O=C(c1cc2ccccc2o1)N1CCC(O)(C#Cc2cccc(Cl)c2)CC1 [Example 1.8, Benzofuran-2-yl-[4-(3-chloro-phenyl-ethynyl)-4-hydroxy-piperidin-1-yl]-methanone] | – | stress-induced hyperthermia (mice; 10 mg/kg p.o., p<0.01): 0.44±0.08 °C; stress-induced hyperthermia (mice; 30 mg/kg p.o., p<0.05): 0.46±0.14 °C; stress-induced hyperthermia (mice; 100 mg/kg p.o., p<0.001): 0.24±0.12 °C; pIC50 (hmGluR5): 6.54
6 | O=C(c1ccoc1)N1CCC(O)(C#Cc2cccc(F)c2)CC1 [Example 1.31, [4-(3-Fluoro-phenylethynyl)-4-hydroxy-piperidin-1-yl]-furan-3-yl-methanone] | 67 to 81 | –
7 | O=C(c1ccoc1)N1CCC(O)(C#Cc2ccc(Cl)cc2)CC1 [Example 1.34, [4-(4-Chloro-phenylethynyl)-4-hydroxy-piperidin-1-yl]-furan-3-yl-methanone] | 124 to 134 | –
8 | O=C(c1ccoc1)N1CCC(O)(C#Cc2ccc(F)cc2F)CC1 [Example 1.35, [4-(2,4-Difluoro-phenylethynyl)-4-hydroxy-piperidin-1-yl]-furan-3-yl-methanone] | 80 to 94 | –
9 | COc1cccc(C#CC2(O)CCN(C(=O)c3ccoc3)CC2)c1 [Example 1.36, Furan-3-yl-[4-hydroxy-4-(3-methoxy-phenylethynyl)-piperidin-1-yl]-methanone] | 83 to 85 | –
10 | Cc1ccc(C)c(C#CC2(O)CCN(C(=O)c3ccoc3)CC2)c1 [Example 1.37, [4-(2,5-Dimethyl-phenylethynyl)-4-hydroxy-piperidin-1-yl]-furan-3-yl-methanone] | 110 to 114 | –
11 | O=C(c1ccncc1)N1CCC(O)(C#Cc2cccc(Cl)c2)CC1 [Example 1.52, [4-(3-Chloro-phenylethynyl)-4-hydroxy-piperidin-1-yl]-pyridin-4-yl-methanone] | 171 to 173 | –
12 | CC(C)c1ccc(N2CCC(O)(C#Cc3cccc(Cl)c3)CC2)cc1 [Example 1.128, 4-(3-Chloro-phenylethynyl)-1-(4-isopropyl-phenyl)-piperidin-4-ol] | 114 to 119 | –
13 | Cc1ccccc1N1CCC(O)(C#Cc2cccc(Cl)c2)CC1 [Example 1.137, 4-(3-Chloro-phenylethynyl)-1-o-tolyl-piperidin-4-ol] | 128 to 130 | –
14 | OC1(C#Cc2cccc(Cl)c2)CCN(c2cccnc2)CC1 [Example 1.138, 4-(3-Chloro-phenylethynyl)-3,4,5,6-tetrahydro-2H-[1,3]bipyridinyl-4-ol] | 124 to 128 | –
15 | OC1(C#Cc2cccc(Cl)c2)CCN(c2cccc3nccnc23)CC1 [Example 1.139, 4-(3-Chloro-phenylethynyl)-1-quinoxalin-5-yl-piperidin-4-ol] | 68 to 70 | –
16 | OC1(C#Cc2cccc(Cl)c2)CCN(c2nc3ccccc3s2)CC1 [Example 1.144, 1-Benzothiazol-2-yl-4-(3-chloro-phenylethynyl)-piperidin-4-ol] | 154 to 157 | –
17 | Cc1cccnc1N1CCC(O)(C#Cc2cccc(Cl)c2)CC1 [Example 1.148, 4-(3-Chloro-phenylethynyl)-3′-methyl-3,4,5,6-tetrahydro-2H-[1,2′]bipyridinyl-4-ol] | 134 to 138 | –
18 | OC1(C#Cc2cccc(Cl)c2)CCN(c2ccnc(Cl)c2)CC1 [Example 1.151, 2′-Chloro-4-(3-chloro-phenylethynyl)-3,4,5,6-tetrahydro-2H-[1,4′]bipyridinyl-4-ol] | 139 to 142 | –
19 | OC1(C#Cc2cccc(Cl)c2)CCN(c2cncnc2)CC1 [Example 1.162, 4-(3-Chloro-phenylethynyl)-1-pyrimidin-5-yl-piperidin-4-ol] | 173 to 177 | –
20 | Cc1ncccc1N1CCC(O)(C#Cc2cccc(Cl)c2)CC1 [Example 1.164, 4-(3-Chloro-phenylethynyl)-2′-methyl-3,4,5,6-tetrahydro-2H-[1,3′]-bipyridinyl-4-ol] | 98 to 102 | –
21 | O=C(C1Oc2ccccc2O1)N1CCC(O)(C#Cc2cccc(Cl)c2)C1 (stereo not drawn) [Example 3.11, Benzo[1,3]dioxol-2-yl-[3-(3-chloro-phenylethynyl)-3-hydroxy-pyrrolidin-1-yl]-methanone] | 153 to 155 | –
